Data taken from patent US6965033B2, “Bisamidate phosphonate prodrugs” (Metabasis Therapeutics, Inc., priority 1999, dated 2005).
Counter-ions that a name gives are not always drawn.

How the values were obtained:
[1] = target: T1, rat liver FBPase (Rattus norvegicus, UniProt P19112); experiment: Inhibition of Rat Liver FBPase; type: biochemical; details: read-out: IC50 (rlFBPase)
T1 construct: made in house; host or cells: E. coli BL21
T1 sequence (P19112 2-363 limits assumed): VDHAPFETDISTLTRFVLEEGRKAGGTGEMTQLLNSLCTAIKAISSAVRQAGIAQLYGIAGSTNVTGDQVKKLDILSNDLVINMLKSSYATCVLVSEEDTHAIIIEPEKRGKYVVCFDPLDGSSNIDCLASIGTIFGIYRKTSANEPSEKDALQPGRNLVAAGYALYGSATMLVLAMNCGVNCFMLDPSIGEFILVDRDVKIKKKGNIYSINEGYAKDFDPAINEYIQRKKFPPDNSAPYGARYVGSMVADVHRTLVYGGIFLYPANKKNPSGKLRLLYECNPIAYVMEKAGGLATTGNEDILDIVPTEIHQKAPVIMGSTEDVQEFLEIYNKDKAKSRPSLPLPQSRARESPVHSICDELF
Description: E. coli strain BL21 transformed with a human liver FBPase-encoding plasmid was obtained from Dr. M. R. El-Maghrabi at the State University of New York at Stony Brook. The enzyme was typically purified from 10 liters of recombinant E. coli culture as described (M. Gidh-Jain et al., 1994, The Journal of Biological Chemistry 269, pp 27732-27738). Enzymatic activity was measured spectrophotometrically in reactions that coupled the formation of product (fructose 6-phosphate) to the reduction of dimethylthiazoldiphenyltetrazolium bromide (MTT) via NADP^+ and phenazine methosulfate (PMS), using phosphoglucose isomerase and glucose 6-phosphate dehydrogenase as the coupling enzymes. Reaction mixtures (200 μl) were made up in 96-well microtitre plates, and consisted of 50 mM Tris-HCl, pH 7.4, 100 mM KCl, 5 mM EGTA, 2 mM MgCl2, 0.2 mM NADP, 1 mg/ml BSA, 1 mM MTT, 0.6 mM PMS, 1 unit/ml phosphoglucose isomerase, 2 units/ml glucose 6-phosphate dehydrogenase, and 0.150 mM substrate (fructose 1,6-bisphosphate). Inhibitor concentrations were varied from 0.01 μM to 10 μM. Reactions were started by the addition of 0.002 units of pure hlFBPase, and were monitored for 7 minutes at 590 nm in a Molecular Devices Plate Reader (37° C.).
E. coli strain BL21 transformed with a rat liver FBPase-encoding plasmid was obtained from Dr. M. R. El-Maghrabi at the State University of New York at Stony Brook. Recombinant FBPase was purified as described (El-Maghrabi, M. R., and Pilkis, S. J. (1991) BioChem. Biophys. Res. Commun. 176, 137-144) The enzyme assay was identical to that described above for human liver FBPase.

[2] = target: T2, human liver FBPase (Homo sapiens, UniProt P09467); experiment: Inhibition of Human Liver FBPase; type: biochemical; details: read-out: IC50 (hlFBPase)
T2 construct: made in house; host or cells: E. coli BL21
T2 sequence (P09467 2-338 limits assumed): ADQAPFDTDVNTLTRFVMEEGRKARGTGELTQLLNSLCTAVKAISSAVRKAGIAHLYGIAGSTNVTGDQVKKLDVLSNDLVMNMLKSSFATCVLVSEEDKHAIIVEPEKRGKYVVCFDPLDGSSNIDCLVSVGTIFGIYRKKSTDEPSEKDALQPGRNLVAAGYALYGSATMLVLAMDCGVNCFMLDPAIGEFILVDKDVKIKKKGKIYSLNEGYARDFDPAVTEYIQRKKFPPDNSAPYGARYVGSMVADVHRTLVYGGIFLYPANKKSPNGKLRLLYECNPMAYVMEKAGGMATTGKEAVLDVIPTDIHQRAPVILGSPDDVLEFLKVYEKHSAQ
Description: […] […] Enzymatic activity was measured spectrophotometrically in reactions that coupled the formation of product (fructose 6-phosphate) to the reduction of dimethylthiazoldiphenyltetrazolium bromide (MTT) via NADP^+ and phenazine methosulfate (PMS), using phosphoglucose isomerase and glucose 6-phosphate dehydrogenase as the coupling enzymes. […] Inhibitor concentrations were varied from 0.01 μM to 10 μM. Reactions were started by the addition of 0.002 units of pure hlFBPase, and were monitored for 7 minutes at 590 nm in a Molecular Devices Plate Reader (37° C.).

Structure (SMILES) | IC50 [1] [nM] | IC50 [2] [nM] | melting point
CC(C)Cc1sc(N)nc1-c1ccc(P(=O)(O)O)o1 [Compound 3.1, 2-amino-5-isobutyl-4-[2-(5-phosphono)furanyl]thiazole] | 180 |  | 
CCOC(=O)c1sc(N)nc1-c1ccc(P(=O)(O)O)o1 [Compound 3.25, 2-Amino-5-ethoxycarbonyl-4-[2-(5-phosphono)furanyl]thiazole] | 500 |  | 
CC(C)Cc1[se]c(N)nc1-c1ccc(P(=O)(O)O)o1 [Compound 3.70, 2-Amino-5-isobutyl-4-[2-(5-phosphono)furanyl]selenazole] | 150 | 40 | 
CCOC(=O)c1oc(N)nc1-c1ccc(P(=O)(O)O)o1 [Compound 10.27, 2-Amino-5-ethoxycarbonyl-4-[2-(5-phosphono)furanyl]oxazole] | 2900 | 38 | 
CCc1cc(CC)c(-c2ccc(P(=O)(O)O)o2)nc1N [Compound 15.4, 2-amino-3,5-diethyl-6-[2-(5-phosphono)furanyl]pyridine] | 4100 |  | 217 to 218 °C
CCCc1ccc(N)nc1-c1ccc(P(=O)(O)O)o1 [Compound 15.14, 6-Amino-3-propyl-2-[2-(5-phosphono)furanyl]pyridine] | 680 | 32 | 
Nc1ccc(C2CC2)c(-c2ccc(P(=O)(O)O)o2)n1 [Compound 15.20, 2-Amino-5-cyclopropyl-6-[2-(5-phosphono)furanyl]pyridine] | 600 | 40 | 
Nc1nc(-c2ccccc2)nc(-c2ccc(P(=O)(O)O)o2)n1 [Compound 17.11, 2-Amino-4-phenyl-6-[2-(5-phosphono)furanyl]triazine] |  | 780 | 
CCc1sc(N)nc1C(=O)OCP(=O)(O)O [Compound 18.3, 2-amino-5-ethyl-4-phosphonomethoxycarbonylthiazole] | 490 | 50 | 
CC(C)c1sc(N)nc1C(=O)OCP(=O)(O)O [Compound 18.20, 2-Amino-5-isopropyl-4-phosphonomethoxycarbonylthiazole] | 280 | 39 | 
Nc1nc(NC(=O)CP(=O)(O)O)ccc1Br [Compound 18.25, 2-Amino-3-bromo-6-[(N-phosphonoacetyl)amino]pyridine] |  | 2000 | 
CSc1sc(N)nc1CCC(F)(F)P(=O)(O)O [Compound 22.2, 2-Amino-5-methylthio-4-[1-(3-phosphono-3,3-difluoro)propyl]thiazole] |  | 2800 | 
Nc1nc2c(OCP(=O)(O)O)cc(Cl)cc2s1 [Compound 31.3, 2-Amino-6-chloro-4-phosphonomethoxybenzothiazole] |  |  | > 250 °C (dec.)
Nc1nc2c(OCP(=O)(O)O)cc(Cl)c(Cl)c2s1 [Compound 31.4, 2-Amino-6,7-dichloro-4-phosphonomethoxybenzothiazole] |  |  | > 250 °C (dec.)
Cc1cc(OCP(=O)(O)O)c2nc(N)sc2c1 [Compound 32.2, 2-Amino-6-methyl-4-phosphonomethoxybenzothiazole] |  |  | > 250 °C (dec.)
CCc1c(SC#N)cc(OCP(=O)(O)O)c2nc(N)sc12 [Compound 34.1, 2-amino-7-ethyl-6-thiocyano-4-phosphonomethoxybenzothiazole] | 160 | 22 | 
CCCOc1c(SC#N)cc(OCP(=O)(O)O)c2nc(N)sc12 [Compound 44.1, 2-Amino-7-propyloxy-6-thiocyano-4-phosphonomethoxy benzothiazole] |  |  | > 220 °C (dec.)
Cc1cc(OCP(=O)(O)O)c2nc(N)sc2c1Br [Compound 47.1, 2-Amino-7-bromo-6-methyl-4-phosphonomethoxybenzothiazole] |  |  | > 250 °C (dec.)
Cc1cc(OCP(=O)(O)O)c2nc(N)sc2c1Cl [Compound 48.2, 2-Amino-7-chloro-6-methyl-4-phosphonomethoxybenzothiazole] |  |  | > 250 °C (dec.)

Further lines, results first:

IC50 [1] [nM] | IC50 [2] [nM] | melting point | Structure (SMILES)
20000 |  |  | Nc1ncnc2c1ncn2[C@@H]1O[C@H](COP(=O)(O)O)[C@@H](O)[C@H]1O [AMP, reference compound]
 | 2000 |  | Nc1nc(-c2cccc(P(=O)(O)O)n2)cs1 [Compound 3.67, 2-Amino-4-[2-(6-phosphono)pyridyl]thiazole hydrobromide]
500 |  |  | Nc1nc(-c2ccc(P(=O)(O)O)o2)c(-c2cccs2)s1 [Compound 6.3]
800 | 70 |  | CCCSc1oc(N)nc1-c1ccc(P(=O)(O)O)o1 [Compound 10.43, 2-Amino-5-propylthio-4-[2-(5-phosphono)furanyl]oxazole]
1300 |  |  | Nc1ccc(Br)c(-c2ccc(P(=O)(O)O)o2)n1 [Compound 15.2, 6-Amino-3-bromo-2-[2-(5-phosphono)furanyl]pyridine]
7000 |  |  | O=P(O)(O)c1ccc(-c2ccccn2)o1 [Compound 15.6, 2-[2-(5-Phosphono)furanyl]pyridine]
 | 620 |  | CSc1nccnc1-c1ccc(P(=O)(O)O)o1 [Compound 17.6, 3-Methylthio-2-[2-(5-phosphono)furanyl]pyrazine]
 | 330 |  | Nc1nc(C(=O)NCP(=O)(O)O)c(Br)s1 [Compound 18.11, 2-Amino-5-bromo-4-[(N-phosphonomethyl)carbamoyl]thiazole]
 | 400 |  | CC(C)Cc1cn(C)nc1-c1ccc(P(=O)(O)O)o1 [Compound 19.2, 1-methyl-4-isobutyl-3-[2-(5-phosphono)furanyl]pyrazole]
 |  | > 230 °C (dec.) | Cc1c(Cl)c(OCP(=O)(O)O)c2nc(N)sc2c1Cl [Compound 29.5, 2-Amino-5,7-dichloro-6-methyl-4-phosphonomethoxybenzothiazole]
 |  | > 230 °C (dec.) | Nc1nc2c(OCP(=O)(O)O)cc(C(=O)O)cc2s1 [Compound 29.6, 2-Amino-4-phosphonomethoxy-6-carboxybenzothiazole]
 |  | > 250 °C (dec.) | N#Cc1ccc(OCP(=O)(O)O)c2nc(N)sc12 [Compound 32.3, 2-Amino-7-cyano-4-phosphonomethoxybenzothiazole]
 |  | > 250 °C (dec.) | CCc1cc(OCP(=O)(O)O)c2nc(N)sc2c1F [Compound 34.5, 2-Amino-6-ethyl-7-fluoro-4-phosphonomethoxybenzothiazole]
 |  | > 250 °C (dec.) | Cc1c(Cl)cc(OCP(=O)(O)O)c2nc(Cl)sc12 [Compound 37.2, 2-Chloro-4-phosphonomethoxy-6-chloro-7-methyl benzothiazole]
 |  | > 250 °C (dec.) | CCCCCCc1c(C)cc(OCP(=O)(O)O)c2nc(N)sc12 [Compound 40.2, 2-Amino-6-methyl-7-(n-hexyl)-4-phosphonomethoxybenzothiazole]
 |  | > 220 °C (dec.) | CCc1cc(OCP(=O)(O)O)c2nc(N)sc2c1 [Compound 42.1, 2-Amino-6-ethyl-4-phosphonomethoxybenzothiazole]
 |  | > 230 °C (dec.) | COc1cc(OCP(=O)(O)O)c2nc(N)sc2c1 [Compound 45.1, 2-Amino-6-methoxy-4-phosphonomethoxybenzothiazole]
550 |  |  | CCc1cc(F)c(N)c2nc(-c3ccc(P(=O)(O)O)o3)n(CC(C)C)c12 [Compound A, 4-Amino-5-fluoro-7-ethyl-1-isobutyl-2-(2-phosphono-5-furanyl)benzimidazole]
2100 |  |  | Nc1c(F)ccc2c1nc(-c1ccc(P(=O)(O)O)o1)n2CC1CC1 [Compound B, 4-Amino-5-fluoro-1-cyclopropylmethyl-2-(2-phosphono-5-furanyl)benzimidazole]
